Legend:
Type in all cases: biochemical
[1] = target: T1, PI3Kα (Homo sapiens, UniProt P42336); test: In vitro determination of the PI3K enzyme inhibitory activity in the cell free assay (ADP-Glo Kinase Assay), PI3Kα; details: ATP 50 μM, read-out: PI3K alpha inhibition
T1 construct: purchased Millipore Ltd (Billerica, Mass.)
Experimental: (§1) In vitro Determination of the PI3K Enzyme Inhibitory Activity in the Cell Free Assay
(§2) Human recombinant proteins PI3Kα, PI3Kβ, PI3Kγ and PI3Kδ were purchased from Millipore Ltd (Billerica, Mass.). Compounds were dissolved at 0.5 mM in DMSO and were tested at different concentrations for their activity against PI3Ks using the ADP-Glo™ Kinase Assay (Promega, Madison Wis.) according to the manufacturer's instructions.
(§3) Briefly, the kinase reactions were performed in 384-well white plates (Greiner Bio-One GmbH, Frickenhausen). Each well was loaded with 0.1 μl of test compounds and 2.5 μl of 2× reaction buffer (40 mM Tris pH7.5, 0.5 mM EGTA, 0.5 mM Na3VO4, 5 mM β-glycerophosphate, 0.1 mg/ml BSA, 1 mM DTT), containing 50 μM PI and PS substrates (L-α-phosphatidylinositol sodium salt and L-α-phosphatidyl-L-serine, Sigma-Aldrich, St. Louis Mo.) and the PI3K recombinant proteins (PI3Kγ 0.25 ng/μl, PI3Kδ 1 ng/μl, PI3Kα 0.125 ng/μl, PI3Kβ 1 ng/μl).
(§4) The reactions were started by adding 2.5 μl of 2×ATP solution to each well (final concentrations: PI3Kγ ATP 30 μM; PI3Kδ ATP 80 μM; PI3KαATP 50 μM; PI3Kβ ATP 100 μM) and incubated for 60 min at room temperature. Subsequently, each kinase reaction was incubated for 40 min with 5 μl ADP-Glo™ Reagent, allowing depletion of unconsumed ATP. Then, the Kinase Detection Reagent (10 μl) was added in each well to convert ADP to ATP and to allow the newly synthesized ATP to be measured using a luciferase/luciferin reaction. Following 60 min incubation, the luminescence signal was measured using a Wallac EnVision® multilabel reader (PerkinElmer, Waltham Mass.).
(§5) Curve fitting and IC50 calculation were carried out using a four-parameter logistic model in XLfit (IDBS, Guilford, UK) for Microsoft Excel (Microsoft, Redmont, Wash.).

[2] = target: T2, PI3Kβ (Homo sapiens, UniProt P42338); test: In vitro determination of the PI3K enzyme inhibitory activity in the cell free assay (ADP-Glo Kinase Assay), PI3Kβ; details: ATP 100 μM, read-out: PI3K beta inhibition
T2 construct: purchased Millipore Ltd (Billerica, Mass.)
T2 sequence (P42338 whole entry): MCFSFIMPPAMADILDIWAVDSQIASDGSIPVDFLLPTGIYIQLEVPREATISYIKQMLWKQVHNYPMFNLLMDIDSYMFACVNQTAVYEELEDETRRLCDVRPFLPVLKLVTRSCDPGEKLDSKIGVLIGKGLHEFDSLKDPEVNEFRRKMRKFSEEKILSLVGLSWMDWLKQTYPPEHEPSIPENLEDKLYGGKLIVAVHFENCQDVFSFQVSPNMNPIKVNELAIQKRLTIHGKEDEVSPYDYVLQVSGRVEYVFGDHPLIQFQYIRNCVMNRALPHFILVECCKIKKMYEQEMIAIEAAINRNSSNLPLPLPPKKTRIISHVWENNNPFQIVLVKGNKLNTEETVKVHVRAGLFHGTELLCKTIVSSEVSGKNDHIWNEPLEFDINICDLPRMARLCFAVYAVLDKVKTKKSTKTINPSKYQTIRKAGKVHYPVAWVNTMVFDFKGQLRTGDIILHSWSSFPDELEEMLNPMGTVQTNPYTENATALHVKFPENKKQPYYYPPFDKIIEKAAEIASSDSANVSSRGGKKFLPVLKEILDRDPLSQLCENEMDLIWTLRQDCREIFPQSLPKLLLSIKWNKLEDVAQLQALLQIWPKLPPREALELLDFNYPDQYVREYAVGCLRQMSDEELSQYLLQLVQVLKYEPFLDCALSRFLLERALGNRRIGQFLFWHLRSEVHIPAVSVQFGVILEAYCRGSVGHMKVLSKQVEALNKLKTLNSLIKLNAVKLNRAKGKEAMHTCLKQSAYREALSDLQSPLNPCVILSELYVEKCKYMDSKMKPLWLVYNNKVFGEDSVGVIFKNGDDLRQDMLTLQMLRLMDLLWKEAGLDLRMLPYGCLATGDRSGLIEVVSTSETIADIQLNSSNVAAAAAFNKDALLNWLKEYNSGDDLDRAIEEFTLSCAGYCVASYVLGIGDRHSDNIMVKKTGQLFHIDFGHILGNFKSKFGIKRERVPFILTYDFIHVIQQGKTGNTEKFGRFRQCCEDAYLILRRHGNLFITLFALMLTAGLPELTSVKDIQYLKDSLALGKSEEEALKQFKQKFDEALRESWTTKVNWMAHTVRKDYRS
T2 sequence (P27986 whole entry partner): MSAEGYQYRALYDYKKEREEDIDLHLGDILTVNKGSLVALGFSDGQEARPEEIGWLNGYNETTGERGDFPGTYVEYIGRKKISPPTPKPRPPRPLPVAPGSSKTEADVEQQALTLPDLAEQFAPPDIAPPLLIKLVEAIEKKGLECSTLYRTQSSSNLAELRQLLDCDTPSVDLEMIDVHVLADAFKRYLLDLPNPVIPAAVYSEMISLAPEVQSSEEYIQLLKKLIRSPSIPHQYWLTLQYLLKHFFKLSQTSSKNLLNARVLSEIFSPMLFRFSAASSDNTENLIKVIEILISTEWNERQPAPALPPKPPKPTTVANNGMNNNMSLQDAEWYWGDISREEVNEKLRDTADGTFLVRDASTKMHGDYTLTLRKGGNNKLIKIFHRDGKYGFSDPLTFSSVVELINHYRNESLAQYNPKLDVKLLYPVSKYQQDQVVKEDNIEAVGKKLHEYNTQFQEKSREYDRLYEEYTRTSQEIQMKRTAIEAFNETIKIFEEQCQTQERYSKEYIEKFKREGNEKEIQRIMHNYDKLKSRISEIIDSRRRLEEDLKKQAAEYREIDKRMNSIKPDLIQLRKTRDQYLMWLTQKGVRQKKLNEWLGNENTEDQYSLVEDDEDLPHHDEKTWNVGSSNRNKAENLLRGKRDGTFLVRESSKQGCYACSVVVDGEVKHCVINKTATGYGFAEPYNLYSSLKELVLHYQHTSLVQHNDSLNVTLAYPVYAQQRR
Experimental: as §1, §2, §3, §4, §5

[3] = target: T3, PI3Kγ (Homo sapiens, UniProt P48736); test: In vitro determination of the PI3K enzyme inhibitory activity in the cell free assay (ADP-Glo Kinase Assay), PI3Kγ; details: ATP 30 μM, read-out: PI3K gamma inhibition
T3 construct: purchased Millipore Ltd (Billerica, Mass.)
T3 sequence (P48736 whole entry): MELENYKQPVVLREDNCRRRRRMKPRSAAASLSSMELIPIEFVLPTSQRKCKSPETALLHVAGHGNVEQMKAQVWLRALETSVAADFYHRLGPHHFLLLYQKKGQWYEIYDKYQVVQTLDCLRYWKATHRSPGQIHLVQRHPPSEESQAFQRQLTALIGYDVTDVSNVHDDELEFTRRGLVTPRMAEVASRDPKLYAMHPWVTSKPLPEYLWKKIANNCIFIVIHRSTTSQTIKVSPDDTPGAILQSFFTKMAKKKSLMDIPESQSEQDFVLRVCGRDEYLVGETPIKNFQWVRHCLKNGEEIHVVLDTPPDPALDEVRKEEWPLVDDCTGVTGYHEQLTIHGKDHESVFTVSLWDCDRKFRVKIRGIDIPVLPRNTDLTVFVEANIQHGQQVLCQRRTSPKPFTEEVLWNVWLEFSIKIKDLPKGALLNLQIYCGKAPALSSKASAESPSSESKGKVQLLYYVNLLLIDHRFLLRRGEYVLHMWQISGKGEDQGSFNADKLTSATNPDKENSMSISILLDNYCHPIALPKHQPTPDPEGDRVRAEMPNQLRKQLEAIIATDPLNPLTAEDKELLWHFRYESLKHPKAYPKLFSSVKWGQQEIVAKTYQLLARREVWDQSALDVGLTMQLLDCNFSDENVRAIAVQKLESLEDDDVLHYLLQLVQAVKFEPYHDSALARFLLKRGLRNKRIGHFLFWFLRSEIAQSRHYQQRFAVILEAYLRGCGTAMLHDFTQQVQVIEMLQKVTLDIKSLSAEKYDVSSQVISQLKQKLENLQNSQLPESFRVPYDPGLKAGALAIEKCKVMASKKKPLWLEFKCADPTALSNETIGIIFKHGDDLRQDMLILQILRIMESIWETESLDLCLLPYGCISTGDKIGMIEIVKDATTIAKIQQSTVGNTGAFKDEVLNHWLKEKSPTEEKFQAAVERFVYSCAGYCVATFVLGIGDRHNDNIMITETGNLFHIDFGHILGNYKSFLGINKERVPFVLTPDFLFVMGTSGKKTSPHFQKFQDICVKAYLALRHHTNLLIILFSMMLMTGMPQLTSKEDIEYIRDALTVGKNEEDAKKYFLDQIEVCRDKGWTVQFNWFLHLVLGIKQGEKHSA
Experimental: as §1, §2, §3, §4, §5

[4] = target: T4, PI3Kδ (Homo sapiens, UniProt O00329); test: In vitro determination of the PI3K enzyme inhibitory activity in the cell free assay (ADP-Glo Kinase Assay), PI3Kδ; details: ATP 80 μM, read-out: PI3K delta inhibition
T4 construct: purchased Millipore Ltd (Billerica, Mass.)
T4 sequence (O00329 whole entry): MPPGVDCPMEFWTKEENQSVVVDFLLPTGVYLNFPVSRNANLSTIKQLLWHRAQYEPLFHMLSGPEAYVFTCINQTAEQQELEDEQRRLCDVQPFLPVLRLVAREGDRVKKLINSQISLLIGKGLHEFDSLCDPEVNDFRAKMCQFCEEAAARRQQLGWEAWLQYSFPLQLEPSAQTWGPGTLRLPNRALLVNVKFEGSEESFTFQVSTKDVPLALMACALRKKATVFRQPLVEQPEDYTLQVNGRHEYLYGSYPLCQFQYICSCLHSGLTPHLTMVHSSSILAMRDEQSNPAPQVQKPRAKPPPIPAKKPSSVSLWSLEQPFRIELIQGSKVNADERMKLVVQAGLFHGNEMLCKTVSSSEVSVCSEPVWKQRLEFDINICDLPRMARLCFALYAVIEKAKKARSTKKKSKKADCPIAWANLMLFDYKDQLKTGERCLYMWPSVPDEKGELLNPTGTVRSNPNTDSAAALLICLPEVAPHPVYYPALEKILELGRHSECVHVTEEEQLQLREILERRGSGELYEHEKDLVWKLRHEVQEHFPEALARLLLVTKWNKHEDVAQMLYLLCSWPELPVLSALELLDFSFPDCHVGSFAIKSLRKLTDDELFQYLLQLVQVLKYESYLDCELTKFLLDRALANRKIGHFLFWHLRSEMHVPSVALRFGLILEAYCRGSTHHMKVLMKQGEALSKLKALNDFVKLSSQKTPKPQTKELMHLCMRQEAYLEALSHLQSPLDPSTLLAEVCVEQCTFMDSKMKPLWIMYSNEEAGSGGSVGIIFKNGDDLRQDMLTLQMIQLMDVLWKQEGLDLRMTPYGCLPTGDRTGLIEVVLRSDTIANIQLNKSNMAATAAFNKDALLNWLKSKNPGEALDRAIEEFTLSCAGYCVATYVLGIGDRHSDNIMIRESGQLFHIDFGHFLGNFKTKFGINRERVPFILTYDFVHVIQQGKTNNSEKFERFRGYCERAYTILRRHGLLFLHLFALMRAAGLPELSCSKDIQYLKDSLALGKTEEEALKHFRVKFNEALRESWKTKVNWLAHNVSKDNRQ
T4 sequence (P27986 whole entry partner): as the sequence (P27986 whole entry partner) above
Experimental: as §1, §2, §3, §4, §5

T1 sequence (P42336 whole entry): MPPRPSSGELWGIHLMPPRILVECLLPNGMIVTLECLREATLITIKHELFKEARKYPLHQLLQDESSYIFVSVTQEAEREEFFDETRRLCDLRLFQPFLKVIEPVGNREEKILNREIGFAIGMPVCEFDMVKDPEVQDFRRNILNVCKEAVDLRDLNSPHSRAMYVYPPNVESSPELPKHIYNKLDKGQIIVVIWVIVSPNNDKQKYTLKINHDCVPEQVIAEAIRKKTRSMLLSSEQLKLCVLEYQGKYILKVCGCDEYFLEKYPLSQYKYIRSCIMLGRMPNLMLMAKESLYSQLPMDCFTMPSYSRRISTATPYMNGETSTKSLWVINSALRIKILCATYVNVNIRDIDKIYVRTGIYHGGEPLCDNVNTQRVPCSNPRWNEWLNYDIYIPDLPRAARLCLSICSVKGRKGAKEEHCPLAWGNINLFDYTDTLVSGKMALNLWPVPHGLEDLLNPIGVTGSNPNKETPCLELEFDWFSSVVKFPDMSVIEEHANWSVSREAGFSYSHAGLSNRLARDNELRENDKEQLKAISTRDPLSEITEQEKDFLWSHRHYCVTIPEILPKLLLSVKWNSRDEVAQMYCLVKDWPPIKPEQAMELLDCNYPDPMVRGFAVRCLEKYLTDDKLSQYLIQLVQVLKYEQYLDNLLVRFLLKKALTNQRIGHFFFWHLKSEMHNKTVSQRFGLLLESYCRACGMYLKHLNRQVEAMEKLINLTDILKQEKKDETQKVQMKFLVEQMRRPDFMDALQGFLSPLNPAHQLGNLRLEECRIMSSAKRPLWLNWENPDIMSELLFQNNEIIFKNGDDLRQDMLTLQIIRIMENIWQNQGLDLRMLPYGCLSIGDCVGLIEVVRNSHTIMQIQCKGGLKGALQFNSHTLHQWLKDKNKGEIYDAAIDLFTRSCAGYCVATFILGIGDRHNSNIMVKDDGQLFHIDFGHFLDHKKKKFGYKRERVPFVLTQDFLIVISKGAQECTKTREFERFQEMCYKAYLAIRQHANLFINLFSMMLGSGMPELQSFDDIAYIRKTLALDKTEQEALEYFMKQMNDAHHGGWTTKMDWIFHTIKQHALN
T1 sequence (P27986 whole entry partner): as the sequence (P27986 whole entry partner) above

For `CC(c1cc2ccccn2c1-c1cccc(C2CCCN2C)c1)n1nc(-c2cc(O)cc(F)c2)c2c(N)ncnc21` (mixture of isomers) [Example 118, 3-[4-amino-1-(1-{3-[3-(1-methylpyrrolidin-2-yl)phenyl]indolizin-2-yl}ethyl)-1H-pyrazolo[3,4-d]pyrimidin-3-yl]-5-fluorophenol], the IC50 [1] was over 1 µM, the IC50 [2] was 0.01 to 1 µM and the IC50 [3] was over 1 µM. It also gave an IC50 [4] of 0.01 to 1 µM.
For `CC(c1cc2ccccn2c1-c1ccccn1)n1nc(-c2cc(O)cc(F)c2)c2c(N)ncnc21` (racemic) [Example 79, 3-(4-amino-1-{1-[3-(pyridin-2-yl)indolizin-2-yl]ethyl}-1H-pyrazolo[3,4-d]pyrimidin-3-yl)-5-fluorophenol], the IC50 [1] was 0.01 to 1 µM, the IC50 [2] was 0.01 to 1 µM and the IC50 [3] was 0.01 to 1 µM. It also gave an IC50 [4] of under 0.01 µM.
`CC(c1cc2ccccn2c1-c1ccncc1)n1nc(-c2cc(O)cc(F)c2)c2c(N)ncnc21` (racemic) [Example 82, 3-(4-amino-1-{1-[3-(pyridin-4-yl)indolizin-2-yl]ethyl}-1H-pyrazolo[3,4-d]pyrimidin-3-yl)-5-fluorophenol] showed an IC50 [1] of over 1 µM, an IC50 [2] of 0.01 to 1 µM and an IC50 [3] of 0.01 to 1 µM. For the same molecule, the IC50 [4] was under 0.01 µM.
`CC(c1cc2ccccn2c1-c1cccc(CN(C)C)c1)n1nc(-c2cc(O)cc(F)c2)c2c(N)ncnc21` (racemic) [Example 93, 3-{4-amino-1-[1-(3-{3-[(dimethylamino)methyl]phenyl}indolizin-2-yl)ethyl]-1H-pyrazolo[3,4-d]pyrimidin-3-yl}-5-fluorophenol] showed an IC50 [1] of 0.01 to 1 µM, an IC50 [2] of 0.01 to 1 µM and an IC50 [3] of 0.01 to 1 µM. It also gave an IC50 [4] of 0.01 to 1 µM.
Molecule `C[C@@H](c1cc2ccccn2c1-c1ccccn1)n1nc(-c2cc(O)cc(F)c2)c2c(N)ncnc21` (single isomer, unassigned) [Example 80, 3-(4-amino-1-{1-[3-(pyridin-2-yl)indolizin-2-yl]ethyl}-1H-pyrazolo[3,4-d]pyrimidin-3-yl)-5-fluorophenol] has an IC50 [1] of 0.01 to 1 µM, an IC50 [2] of 0.01 to 1 µM and an IC50 [3] of 0.01 to 1 µM. The IC50 [4] was under 0.01 µM.
`C[C@@H](c1cc2ccccn2c1-c1ccccn1)n1nc(-c2cc(O)cc(F)c2)c2c(N)ncnc21` (single isomer, unassigned) [Example 81, 3-(4-amino-1-{1-[3-(pyridin-2-yl)indolizin-2-yl]ethyl}-1H-pyrazolo[3,4-d]pyrimidin-3-yl)-5-fluorophenol] showed an IC50 [1] of over 1 µM, an IC50 [2] of over 1 µM and an IC50 [3] of over 1 µM. For the same molecule, the IC50 [4] was 0.01 to 1 µM.
With `C[C@@H](c1cc2ccccn2c1-c1ccncc1)n1nc(-c2cc(O)cc(F)c2)c2c(N)ncnc21` (single isomer, unassigned) [Example 83, 3-(4-amino-1-{1-[3-(pyridin-4-yl)indolizin-2-yl]ethyl}-1H-pyrazolo[3,4-d]pyrimidin-3-yl)-5-fluorophenol] the IC50 [1] was 0.01 to 1 µM, the IC50 [2] was 0.01 to 1 µM and the IC50 [3] was 0.01 to 1 µM. For the same molecule, the IC50 [4] was under 0.01 µM.
`C[C@@H](c1cc2ccccn2c1-c1ccncc1)n1nc(-c2cc(O)cc(F)c2)c2c(N)ncnc21` (single isomer, unassigned) [Example 84, 3-(4-amino-1-{1-[3-(pyridin-4-yl)indolizin-2-yl]ethyl}-1H-pyrazolo[3,4-d]pyrimidin-3-yl)-5-fluorophenol] was tested, and the IC50 [1] was over 1 µM, the IC50 [2] was over 1 µM and the IC50 [3] was over 1 µM. It also gave an IC50 [4] of 0.01 to 1 µM.
With `C[C@H](c1cc2ccccn2c1-c1cccc(CN(C)C)c1)n1nc(-c2cc(O)cc(F)c2)c2c(N)ncnc21` (single isomer, unassigned) [Example 93a, 3-{4-amino-1-[1-(3-{3-[(dimethylamino)methyl]phenyl}indolizin-2-yl)ethyl]-1H-pyrazolo[3,4-d]pyrimidin-3-yl}-5-fluorophenol] the IC50 [1] was 0.01 to 1 µM, the IC50 [2] was 0.01 to 1 µM and the IC50 [3] was over 1 µM. For the same molecule, the IC50 [4] was under 0.01 µM.

Source: US9527869B2, “Indolizine derivatives as phoshoinositide 3-kinases inhibitors” (CHIESI FARMACEUTICI S.P.A., priority 2014, dated 2016)
